Data on two compounds can be found in patent publication US11572399B2, “Long-acting GIP peptide analogues” (University of Copenhagen, priority 2017, dated 2023).

Series [1] deals with T1, human GIP receptor (Homo sapiens, UniProt P48546).
T1 construct: host or cells: COS-7, transient transfection (calcium phosphate), cDNA in pCMV-Script
T1 sequence (P48546 22-466): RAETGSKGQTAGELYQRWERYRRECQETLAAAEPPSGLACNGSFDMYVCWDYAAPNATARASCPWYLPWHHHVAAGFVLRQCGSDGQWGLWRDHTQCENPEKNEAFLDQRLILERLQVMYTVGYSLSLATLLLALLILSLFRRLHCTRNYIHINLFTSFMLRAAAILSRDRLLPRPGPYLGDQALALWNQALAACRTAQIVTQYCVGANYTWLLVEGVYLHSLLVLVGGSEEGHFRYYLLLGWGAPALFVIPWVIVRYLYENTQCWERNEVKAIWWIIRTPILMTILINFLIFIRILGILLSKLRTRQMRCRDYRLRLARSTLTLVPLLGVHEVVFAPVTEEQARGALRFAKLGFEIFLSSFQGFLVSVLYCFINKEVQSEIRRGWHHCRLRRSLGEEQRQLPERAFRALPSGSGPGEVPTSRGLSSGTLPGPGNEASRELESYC
In words: cAMP accumulation assay, agonism (ligand alone). Format: cell-based. The note with it: COS-7 cells, Table 1; for Emax: COS-7, intrinsic cAMP activity. A general note: Cyclic AMP is a second messenger, typically raised through Gs and lowered through Gi signalling.

The target of series [2] is T1, human GIP receptor. In words: cAMP accumulation assay, antagonism of a GIP-mediated cAMP response (50-80% of max). The format is cell-based. The method, then: The day after, the cells were washed twice with Hepes buffered saline (HBS) buffer and incubated with HBS and 1 mM 3-isobutyl-1-methylxanthine (IBMX) for 30 min at 37° C. […] The HitHunter™ cAMP XS assay (DiscoveRx) was carried out according to the manufacturer's instructions.

A short description of series [3]: Elimination half-life (T1/2) estimated in pigs, subcutaneous, RIA. The format is in vivo. The following applies: pig; for half-life: plasma, sc, pigs, subcutaneous 1-10 nmol/kg. The method, then: LYH/LYD strain pigs or mini-pigs were housed in the animal facility at the Faculty of Health and Medical Sciences.
A pig was subcutaneously administered one of the lipidated GIP(3-30)NH2 analogs (compound AT117) (1-10 nmol/kg, total volume 2-6 mL) after which 10-18 blood samples were collected before and up to 57 hours post subcutaneous administration) from a central venous catheter. The catheter was flushed with saline and heparin between samples. Blood was collected into cold EDTA tubes, centrifuged and plasma was kept at −20° C. pending analyses. When experiments are completed, the animals will be killed.
Concentrations of the lipidated GIP(3-30)NH2 or GIP(5-30)NH2 analogues in blood samples from pigs were analysed by RIA. Analogues' immunoreactivity was determined using antiserum Ab95234, Ab95235, Ab95236, a polyclonal in-house antibody raised in rabbits specific for either the mid region of GIP(1-30)NH2 or amidated C-terminus of GIP(3-30)NH2.

Series [4] concerns the target T1, human GIP receptor. In words: 125I-human GIP competition binding assay, in the presence and absence of 2% HSA.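 As to all read-outs here: nonspecific binding taken as radioligand bound to untransfected cells, IC50 obtained from nonlinear regression fits.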 The following applies: for Fold change in affinity, IC50 (plus HSA)/IC50 (minus HSA): presence vs absence of 2% HSA, proxy for albumin binding.

Peptide text beside a SMILES is read from it. * marks the point of attachment. C16 diacid = O=C(O)CCCCCCCCCCCCCCC(=O)*

`CC[C@H](C)[C@H](NC(=O)[C@H](CCCCN)NC(=O)[C@H](CC(=O)O)NC(=O)[C@H](CCSC)NC(=O)[C@H](CCCCNC(=O)CCCCCCCCCCCCCCC(=O)O)NC(=O)[C@@H](NC(=O)[C@H](CO)NC(=O)[C@H](Cc1ccc(O)cc1)NC(=O)[C@H](CC(=O)O)NC(=O)[C@H](CO)NC(=O)[C@@H](NC(=O)[C@H](Cc1ccccc1)NC(=O)[C@@H](N)[C@@H](C)O)[C@@H](C)CC)[C@@H](C)CC)C(=O)N[C@@H](Cc1c[nH]cn1)C(=O)N[C@@H](CCC(N)=O)C(=O)N[C@@H](CCC(N)=O)C(=O)N[C@@H](CC(=O)O)C(=O)N[C@@H](Cc1ccccc1)C(=O)N[C@H](C(=O)N[C@@H](CC(N)=O)C(=O)N[C@@H](Cc1c[nH]c2ccccc12)C(=O)N[C@@H](CC(C)C)C(=O)N[C@@H](CC(C)C)C(=O)N[C@@H](C)C(=O)N[C@@H](CCC(N)=O)C(=O)N[C@@H](CCCCN)C(N)=O)C(C)C` [AT175, [hGIP(5-30)NH2[A13K]-C16diacid/13]] (H-TFISDYSIK(C16 diacid)MDKIHQQDFVNWLLAQK-NH2; N-terminus assumed): the Emax at human GIP receptor [1] came out at 0%. In addition, at human GIP receptor [2], the “Ability to antagonize the GIP-mediated cAMP response (in words)” value was “highest antagonistic potencies”. Besides, the “Fold change of IC50 versus GIP(5-30)NH2” value at human GIP receptor [2] (fold change of IC50 from GIP(5-30)NH2) was determined as 0.5. For the same compound, the half-life in series [3] is 6 h. Besides, the “T½” value in series [3] (subcutaneous) is 6 h. Moreover, the “Fold change HSA (2%)/Casein (0.1%)” value on human GIP receptor [4] (IC50 (plus HSA)/IC50 (minus HSA)) was determined as 7.8. The affinity on human GIP receptor [4] (absence of HSA) corresponds to a Ki of 53 nM. Further, the IC50 on human GIP receptor [4] (binding in 0.1% casein (absence of HSA), log value, read-out: logIC50 0.1% casein (converted)) is 79.4 nM; on human GIP receptor [4] (binding in presence of 2% HSA, read-out: logIC50 2% HSA (converted)), 562 nM. Moreover, the “Binding (+/−HSA) Fold” value on human GIP receptor [4] (fold change +HSA/−HSA) is reported as 9.4. Further, the “Fold change in affinity, IC50 (plus HSA)/IC50 (minus HSA)” value at human GIP receptor [4] is listed as 7.8 fold.
`CC[C@H](C)[C@H](NC(=O)[C@H](CO)NC(=O)[C@H](Cc1ccc(O)cc1)NC(=O)[C@H](CC(=O)O)NC(=O)[C@H](CO)NC(=O)[C@@H](NC(=O)[C@H](Cc1ccccc1)NC(=O)[C@@H](NC(=O)CNC(=O)[C@@H](N)CCC(=O)O)[C@@H](C)O)[C@@H](C)CC)C(=O)N[C@@H](C)C(=O)N[C@@H](CCSC)C(=O)N[C@@H](CC(=O)O)C(=O)N[C@@H](CCCNC(=N)N)C(=O)N[C@H](C(=O)N[C@@H](CCCCNC(=O)CCCCCCCCCCCCCCC(=O)O)C(=O)N[C@@H](CCC(N)=O)C(=O)N[C@@H](CCC(N)=O)C(=O)N[C@@H](CC(=O)O)C(=O)N[C@@H](Cc1ccccc1)C(=O)N[C@H](C(=O)N[C@@H](CC(N)=O)C(=O)N[C@@H](Cc1c[nH]c2ccccc12)C(=O)N[C@@H](CC(C)C)C(=O)N[C@@H](CC(C)C)C(=O)N[C@@H](C)C(=O)N[C@@H](CCC(N)=O)C(=O)N[C@@H](CCCNC(=N)N)C(N)=O)C(C)C)[C@@H](C)CC` [AT159, [hGIP(3-30)NH2[K16R; H18K; K30R]-C16diacid/18]] (H-EGTFISDYSIAMDRIK(C16 diacid)QQDFVNWLLAQR-NH2; N-terminus assumed): the Emax on human GIP receptor [1] came to 6%. Moreover, the EC50 at human GIP receptor [1] (read-out: cAMP agonism nM (EC50)) is 2 nM. Further, the “cAMP - antagonisme fold (paired)” value on human GIP receptor [2] (fold vs GIP(3-30)NH2, Table 3b) was determined as 0.1 fold. Moreover, the IC50 is 6 nM at human GIP receptor [2] (transiently transfected COS-7 cells, Table 1 and text, read-out: cAMP antagonism nM (IC50, antagonistic potency)); 25 nM on human GIP receptor [4] (0.1% casein, no HSA, Table 3b, read-out: Binding logIC50 0.1% casein (converted)); 25 nM on human GIP receptor [4] (Table 3b, initial data, read-out: Binding IC50); 18 nM on human GIP receptor [4] (heterologous competition binding, transiently transfected COS-7 cells expressing the human GIP receptor, read-out: Binding). The half-life in series [3] is 6 h. At human GIP receptor [4] (fold decrease in affinity compared to GIP(3-30)NH2, Table 3b), the “Binding fold (paired)” value amounted to 3 fold. In addition, at human GIP receptor [4], the “Fold change in affinity, IC50 (plus HSA)/IC50 (minus HSA)” value turned out to be 0.8 fold.

What is called Emax is the maximal effect, on the per cent scale that the assay sets. What is called half-life is the time in which the quantity being followed falls by half. Broadly, the Ki is a dissociation constant, usually derived from enzyme kinetics or from competition with a known ligand. Low readings indicate tighter binding, high ones weaker binding. In general, EC50 refers to the concentration that produces a half-maximal response.
